Experimental data published in PubChem BioAssay AID1919003 (Molecular Pharmacology Branch, DTP, NCI, 2023).

Test system: 786-0 complex spheroids with HUVEC/MSC, growth % test/control
Assay: Anticancer human tumor 786-0 cell line growth inhibition [AhR];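 also: compound exposure lasted seven days before the read-out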
Conditions: for IC50: curve of first compound; for viability, T/C: stronger effect = lower value
Outline: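 Spheroids combined tumor cells with HUVEC endothelial cells and human MSCs as stroma. AhR antagonists were paired with standard or investigational drugs, each dosed in half-log steps down from near clinical Cmax, or from 10 microM where Cmax was unknown.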

Structure (SMILES): Nc1ncn(C2CC(O)C(CO)O2)c(=O)n1 (stereo not given) + CC(CO)NC(=O)c1cc(-c2ccc(Cl)cc2)nn(-c2cnn(C)c2)c1=O
- IC50 (second compound 0.1 µM): > 1000 nM
- IC50 (second compound 0.316 µM): > 1000 nM
- IC50 (second compound 1 µM): > 1000 nM
- IC50 (second compound 3.16 µM): > 1000 nM
- IC50 (second compound 10 µM): > 1000 nM
- viability, T/C (second compound 0.1 µM, first compound 0.00316 µM): 96.2%
- viability, T/C (second compound 0.1 µM, first compound 0.01 µM): 79.7%
- viability, T/C (second compound 0.1 µM, first compound 0.0316 µM): 72.4%
- viability, T/C (second compound 0.1 µM, first compound 0.1 µM): 75.3%
- viability, T/C (second compound 0.1 µM, first compound 0.316 µM): 75.3%
- viability, T/C (second compound 0.1 µM, first compound 1 µM): 62%
- viability, T/C (second compound 0.316 µM, first compound 0.00316 µM): 69%
- viability, T/C (second compound 0.316 µM, first compound 0.01 µM): 66%
- viability, T/C (second compound 0.316 µM, first compound 0.0316 µM): 75.3%
- viability, T/C (second compound 0.316 µM, first compound 0.1 µM): 62.1%
- viability, T/C (second compound 0.316 µM, first compound 0.316 µM): 57.9%
- viability, T/C (second compound 0.316 µM, first compound 1 µM): 55%
- viability, T/C (second compound 1 µM, first compound 0.00316 µM): 82.4%
- viability, T/C (second compound 1 µM, first compound 0.01 µM): 109%
- viability, T/C (second compound 1 µM, first compound 0.0316 µM): 88.6%
- viability, T/C (second compound 1 µM, first compound 0.1 µM): 72.1%
- viability, T/C (second compound 1 µM, first compound 0.316 µM): 65.3%
- viability, T/C (second compound 1 µM, first compound 1 µM): 61%
- viability, T/C (second compound 3.16 µM, first compound 0.00316 µM): 108%
- viability, T/C (second compound 3.16 µM, first compound 0.01 µM): 94.1%
- viability, T/C (second compound 3.16 µM, first compound 0.0316 µM): 93.8%
- viability, T/C (second compound 3.16 µM, first compound 0.1 µM): 91.2%
- viability, T/C (second compound 3.16 µM, first compound 0.316 µM): 77.7%
- viability, T/C (second compound 3.16 µM, first compound 1 µM): 64.3%
- viability, T/C (second compound 10 µM, first compound 0.00316 µM): 116%
- viability, T/C (second compound 10 µM, first compound 0.01 µM): 121%
- viability, T/C (second compound 10 µM, first compound 0.0316 µM): 122%
- viability, T/C (second compound 10 µM, first compound 0.1 µM): 117%
- viability, T/C (second compound 10 µM, first compound 0.316 µM): 109%
- viability, T/C (second compound 10 µM, first compound 1 µM): 73.1%
